One assay has as its target T1, Serine protease 1 (Bos taurus, UniProt P00760).
T1 sequence (P00760 whole entry): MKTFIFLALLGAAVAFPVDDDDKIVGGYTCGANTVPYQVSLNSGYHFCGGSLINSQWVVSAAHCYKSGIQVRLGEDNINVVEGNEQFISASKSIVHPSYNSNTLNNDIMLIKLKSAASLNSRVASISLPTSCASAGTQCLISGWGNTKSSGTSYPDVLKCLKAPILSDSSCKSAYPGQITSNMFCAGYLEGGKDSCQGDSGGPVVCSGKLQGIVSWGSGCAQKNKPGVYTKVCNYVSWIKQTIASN
The experiment in a line: Binding affinity against bovine trypsin.

Assay [1] has as its target T2, Prothrombin (Homo sapiens, UniProt P00734). The experiment in a line: Binding affinity against human alpha thrombin; SB = slow-binding kinetics.
Assay [2] has as its target T2, Prothrombin. The experiment in a line: Inhibitory concentration against human alpha thrombin.
The species named for a further assay is Homo sapiens. Put plainly: Inhibitory concentration against gel filtered platelet aggregation induced by alpha thrombin. The assay is classed as functional.
Assay [3] has as its target T2, Prothrombin. Put plainly: Inhibition constant against human alpha thrombin.
The target of assay [4] is T2, Prothrombin. Put plainly: Binding affinity determined against human alpha thrombin.
Assay [5] deals with Cavia porcellus. Put plainly: Percent change in blood pressure in guinea pig at 20 mg/kg dose.
In assay [6] the test system is Cavia porcellus. Put plainly: Cardiovascular safety ratio ratiod (ED-25:ED50) estimation, which is based on a comparison of the hypotensive response in anesthetized guinea pigs to the anticoagulant / antithrombotic response in dogs. Type of assay: functional.
Assay [7] deals with Cavia porcellus. Put plainly: Cardiovascular safety ratio ratiod (ED-25:ED50) estimation, which is based on a comparison of the hypotensive response in anesthetized guinea pigs to the anticoagulant / antithrombotic response in rabbit. The assay is classed as functional.
For another assay, the system named is Canis familiaris. The experiment in a line: In vivo effective intravenous dose for that reduces thrombus weight accumulation on a silk fiber by 50% was determined in Dog arteriovenous shunt model. Type of assay: functional. The following applies: Canis lupus familiaris.
The species entered for assay [8] is Cavia porcellus. The experiment in a line: animal or person. Conditions: Blood, iv.
Description: In vivo effective intravenous dose for eliciting a 25% decrease in blood pressure in anesthetized Guinea pig
Assay [9] concerns Cavia porcellus. The experiment in a line: Percent change in blood pressure in guinea pig at 10 mg/kg dose.
In a further assay the test system is Oryctolagus cuniculus. The experiment in a line: In vivo effective intravenous dose for that was determined in Rabbit deep vein thrombosis model.

For orientation: Ki means the dissociation constant of the complex between target and ligand, obtained from inhibition or displacement. A lower Ki goes with tighter binding. For the compound `NC(N)=NCCCC(NC(=O)[C@@H]1CCCN1C(=O)[C@H](N)Cc1ccccc1)C(=O)c1nc2ccccc2s1` (some centres undefined), the Ki is 0.3 nM at Serine protease 1 and “Slow Binding” on Prothrombin [1].
A word on the IC50: it is the point on the concentration scale where inhibition reaches its midpoint. A high value points to a need for much substance. As for `N=C(N)NCCC[C@H](NC(=O)[C@@H]1CCCN1C(=O)[C@H](CO)NS(=O)(=O)c1cccc2ccccc12)C(=O)c1nc2ccccc2s1`, the inhibitory constant (Ki) on Serine protease 1 is 2.9 nM; at Prothrombin [3], 10 nM; on Prothrombin [4], 0.78 nM. Moreover, the IC50 was 110 nM on Prothrombin [2] and 34 nM in the assay filed under Homo sapiens. Further, in the assay on Cavia porcellus [5], the “Delta BP” value is -30%.
Usually ED50 stands for the midpoint of the dose-response relation. A low value points to greater potency. Take `CN[C@H](Cc1ccccc1)C(=O)N1CCC[C@H]1C(=O)N[C@H](C=O)CCCNC(=N)N` (stereo in doubt; 1b): the Ratio was 43 with Cavia porcellus [6] and 136 with Cavia porcellus [7]. In addition, the figures for the Ki on Serine protease 1, on Prothrombin [3] and at Prothrombin [4] were 9.1 nM, 18 nM and 18 nM, respectively. Further, the half-inhibitory concentration (IC50) came out at 85 nM against Prothrombin [2] and 83 nM in the assay listed under Homo sapiens. In addition, the ED50 with Canis familiaris was 0.66 mg/kg; in the assay on Oryctolagus cuniculus, 0.21 mg/kg. Besides, the ED25 in the assay filed under Cavia porcellus [8] came out at 28.6 mg/kg. For the same compound, in the assay on Cavia porcellus [9], the “Delta BP” value was -21%.

The record behind these values is ChEMBL document CHEMBL1142732, “In-depth study of tripeptide-based alpha-ketoheterocycles as inhibitors of thrombin. Effective utilization of the S1' subsite and its implications to structure-based drug design” (J Med Chem, 2005).
